Key:
Assay type in all cases: biochemical, human
pooled normal plasma = assay: Clot lifespan model (CLSM) thrombelastography with tPA, normal plasma; conditions: 100 μM
Description: (§1) Pooled normal plasma (George King Bio-Medical, Overland Park, Kans.) anticoagulated with sodium citrate was utilized for experimentation. […] Factor XIII (FXIII) deficient plasma anticoagulated with sodium citrate was also obtained from the same vendor.
(§2) Plasma Sample Composition. The final volume for all subsequently described plasma sample mixtures was 359.4 μL. Sample composition consisted of 316 μL of plasma; 10 μL of tissue factor (0.1% final concentration in 0.9% NaCl; Diagnostica Stago, Asnieres, France), 3.6 μL of dimethyl sulfoxide (DMSO) or DMSO with CORM-2 (Sigma-Aldrich, St. Louis, Mo.) or DMSO with inactivated CORM-2 (iCORM-2), 10 μL of tissue-type plasminogen activator (tPA, 580 U/μg, Genentech, Inc., San Francisco, Calif.) diluted with 10 mM potassium phosphate buffer (pH 7.4) for a final activity of 100 IU/mL, and 20 μL of 200 mM CaCl2. […] This concentration of CORM-2 was chosen because the concentration of CO released would be expected to be in the mid to lower ranges used in previously reported ex vivo, in vitro, and cell-based experiments (Motterlini et al. 2002; Megias et al. 2007; Chlopicki et al. 2006; Dong et al. 2008). […] (Motterlini et al. 2005). While CORM-2 decays slowly in DMSO, DMSO was added to the dry compound just prior to placement into the plasma mixture. The specific series of experiments are subsequently presented.
Concentration-Response Relationships of CORM-2 and iCORM-2 with Clot Lifespan Model (CLSM) Parameters. Normal plasma was exposed to 0, 25, 50, 100 or 200 μM CORM-2 (n=4 per concentration. Additional plasma samples were exposed to 25, 50 or 100 μM iCORM-2 (n=4 per concentration). Samples underwent CLSM analyses as subsequently described.
Comparison of the Effects of CORM-2 and iCORM-2 on CLSM Parameters in Normal Plasma. Given the results of the aforementioned experiments, additional samples of normal plasma were exposed to 0 or 100 μM of CORM-2 or iCORM-2 (n=4 per additional sample condition, n=8 per condition for final analyses). Samples underwent CLSM analyses as subsequently described.
(§3) Clot Lifespan Model Analyses. As described in Example 1, plasma sample mixtures were placed in a disposable cup in a computer-controlled THROMBELASTOGRAPH® hemostasis system (Model 5000, Haemoscope Corp., Niles, Ill.), with addition of CaCl2 as the last step to initiate clotting. Data were collected until clot lysis time occurred. […] As this model involves complete fibrinolysis, TTG is equivalent to ACL, so ACL was not presented as it provides no additional information.
(§4) Statistical Analyses. Data are presented as median (1st, 3rd quartiles). […] Nonlinear and linear analyses and curve fitting of the various CORM-2 concentrations effects on CLSM variables were performed with commercially available software (SigmaPlot 11.0, Systat Software, Inc., San Jose, Calif.). Analyses of the effects of CORM-2 and iCORM-2 on CLSM variables in normal plasma were conducted with Kruskal-Wallis one way analysis of variance on ranks, whereas Mann-Whitney rank sum tests were used to assess the effects of CORM-2 on CLSM variables in the various immunodepleted/congenitally deficient plasma types (SigmaStat 3.1, Systat Software, Inc., San Jose, Calif.). Graphical representation of the data was generated with commercially available software (SigmaPlot 11.0, Systat Software, Inc., San Jose, Calif.; CorelDRAW 12.0, Corel Corporation, Ottawa, Ontario, Canada; Origin 7.5, OriginLab Corp., Northampton, Mass.). A P value of <0.05 was considered significant.

FXIII deficient plasma = assay: CLSM thrombelastography with tPA, FXIII deficient plasma; conditions: 100 μM CORM-2, tPA 100 IU/mL, median, n=8
Description: as §1, §2
(§5) Assessment of the Effects of CORM-2 on CLSM Parameters in FXIII, PAI-1, TAFI and α2-antiplasmin Deficient Plasmas. These experiments were performed to elucidate the roles played by antifibrinolytic enzymes during CORM-2 mediated modulation of fibrinolysis. Samples of the various deficient plasmas were exposed to 0 or 100 μM of CORM-2 (n=8 per condition). Samples underwent CLSM analyses as subsequently described.
as §3, §4

[1] = test system: α2-antiplasmin deficient plasma; assay: CLSM thrombelastography with tPA, α2-antiplasmin deficient plasma
Description: as §1, §2, §5, §3, §4

[2] = 100 μM CORM-2, tPA 100 IU/mL, median, n=8

[C-]#[O+].[C-]#[O+].[C-]#[O+].[C-]#[O+].[C-]#[O+].[C-]#[O+].[Cl][Ru][Cl].[Cl][Ru][Cl] [CORM-2, tricarbonyldichlororuthenium (II) dimer]
delay of the onset of fibrinolysis vs samples not exposed (pooled normal plasma; tPA): 258%
enhancement of strength of the clot vs samples not exposed (pooled normal plasma; tPA): 113%
enhancement of the velocity of growth vs samples not exposed (pooled normal plasma; tPA): 120%
increase in CGT vs 0 μM CORM-2 (pooled normal plasma; tPA): 126%
increase in CLS vs 0 μM CORM-2 (pooled normal plasma; tPA): 145%
increase in CLT vs 0 μM CORM-2 (pooled normal plasma; tPA): 143%
CGT (clot growth time) (pooled normal plasma; tPA 100 IU/mL, median, n=8): 508 s
CLS (clot lifespan) (pooled normal plasma; tPA 100 IU/mL, median, n=8): 2325 s
CLT (clot lysis time) (pooled normal plasma; tPA 100 IU/mL, median, n=8): 1768 s
MRL (maximum rate of lysis) (pooled normal plasma; tPA 100 IU/mL, median, n=8): −1.9 -dynes/cm^2/sec
MRTG (maximum rate of thrombus generation) (pooled normal plasma; tPA 100 IU/mL, median, n=8): 9.7 dynes/cm^2/sec
TMRL (time to maximum rate of lysis) (pooled normal plasma; tPA 100 IU/mL, median, n=8): 1218 s
TMRTG (time to maximum rate of thrombus generation) (pooled normal plasma; tPA 100 IU/mL, median, n=8): 155 s
TTG (total thrombus generation) (pooled normal plasma; tPA 100 IU/mL, median, n=8): 281 dynes/cm^2
CGT (clot growth time) (FXIII deficient plasma): 820 s
CLS (clot lifespan) (FXIII deficient plasma): 2258 s
CLT (clot lysis time) (FXIII deficient plasma): 1460 s
MRL (maximum rate of lysis) (FXIII deficient plasma): −1.0 -dynes/cm^2/sec
MRTG (maximum rate of thrombus generation) (FXIII deficient plasma): 5.8 dynes/cm^2/sec
TMRL (time to maximum rate of lysis) (FXIII deficient plasma): 855 s
TMRTG (time to maximum rate of thrombus generation) (FXIII deficient plasma): 195 s
TTG (total thrombus generation) (FXIII deficient plasma): 160 dynes/cm^2
CGT (clot growth time) [1, 2]: 188 s
CLS (clot lifespan) [1, 2]: 378 s
CLT (clot lysis time) [1, 2]: 190 s
MRL (maximum rate of lysis) [1, 2]: −10.0 -dynes/cm^2/sec
MRTG (maximum rate of thrombus generation) [1, 2]: 10.1 dynes/cm^2/sec
TMRL (time to maximum rate of lysis) [1, 2]: 68 s
TMRTG (time to maximum rate of thrombus generation) [1, 2]: 160 s
TTG (total thrombus generation) [1, 2]: 231 dynes/cm^2
increase of CLS ([1]; 100 μM CORM-2 vs unexposed): 14%
increase of the velocity of clot formation ([1]; 100 μM CORM-2 vs unexposed): 35%
prolongation of CLT ([1]; 100 μM CORM-2 vs unexposed): 23%

Source: patent publication US8697747B2, “Enhancing coagulation or reducing fibrinolysis” (THe UAB Research Foundation, priority 2009, dated 2014)
